Values joined by “and” are separate entries in the source; they are usually repeats but may differ in a detail not shown here. Equal entries are not always repeated.
Experiments:
human mGluR2 receptor = biological target: T1, human mGluR2 receptor (Homo sapiens, UniProt Q14416); test: [35S]GTPγS binding assay (GTPγS-PAM), membranes from CHO cells transfected with human mGluR2; assay type: biochemical; details: positive allosteric modulation in presence of glutamate at predetermined EC25 concentration, averages of duplicate values of 11-concentration response curves, pEC50 = -logEC50, error about 0.3 log-units; for EC50: read-out: GTPgS - hR2 PAM pEC50 (converted)
T1 construct: expressed in transfected cells; host or cells: CHO cells (membrane preparation)
T1 sequence (Q14416 19-872): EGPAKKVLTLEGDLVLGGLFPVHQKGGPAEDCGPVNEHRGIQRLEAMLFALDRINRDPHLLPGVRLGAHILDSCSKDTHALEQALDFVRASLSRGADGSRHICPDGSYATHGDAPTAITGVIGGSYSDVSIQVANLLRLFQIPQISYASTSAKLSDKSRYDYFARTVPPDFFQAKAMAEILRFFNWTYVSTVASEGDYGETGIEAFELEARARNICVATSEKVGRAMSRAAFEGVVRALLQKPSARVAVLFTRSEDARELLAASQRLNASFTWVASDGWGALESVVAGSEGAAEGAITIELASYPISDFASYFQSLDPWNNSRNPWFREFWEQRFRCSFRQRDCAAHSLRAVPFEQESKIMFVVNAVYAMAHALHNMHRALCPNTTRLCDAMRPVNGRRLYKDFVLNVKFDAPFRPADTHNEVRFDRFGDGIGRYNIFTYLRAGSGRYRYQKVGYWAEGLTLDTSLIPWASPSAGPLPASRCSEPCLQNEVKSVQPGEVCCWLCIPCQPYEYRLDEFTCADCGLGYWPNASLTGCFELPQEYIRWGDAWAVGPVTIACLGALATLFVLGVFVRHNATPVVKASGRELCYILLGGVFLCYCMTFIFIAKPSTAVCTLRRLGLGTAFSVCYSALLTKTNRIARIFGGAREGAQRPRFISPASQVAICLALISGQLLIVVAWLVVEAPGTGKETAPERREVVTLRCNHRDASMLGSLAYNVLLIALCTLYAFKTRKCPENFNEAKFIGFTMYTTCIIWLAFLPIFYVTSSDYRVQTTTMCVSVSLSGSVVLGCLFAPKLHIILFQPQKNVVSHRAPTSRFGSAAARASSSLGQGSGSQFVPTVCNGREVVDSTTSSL
Excerpt: The compounds provided in the present invention are positive allosteric modulators of mGluR2. These compounds appear to potentiate glutamate responses by binding to an allosteric site other than the glutamate binding site. The response of mGluR2 to a concentration of glutamate is increased when compounds of formula (I) are present. Compounds of formula (I) are expected to have their effect substantially at mGluR2 by virtue of their ability to enhance the function of the receptor. The behaviour of positive allosteric modulators tested at mGluR2 using the [^35S]GTPγS binding assay method described below and which is suitable for the identification of such compounds, and more particularly the compounds according to formula (I), are shown in Table 3.
[^35S]GTPγS Binding Assay
The [^35S]GTPγS binding assay is a functional membrane-based assay used to study G-protein coupled receptor (GPCR) function whereby incorporation of a non-hydrolysable form of GTP, [^35S]GTPγS (guanosine 5′-triphosphate, labelled with […] ^35S), is measured. The G-protein […] catalyzes the exchange of guanosine 5′-diphosphate (GDP) by guanosine triphosphate (GTP) and on activation of the GPCR by an agonist, [^35S]GTPγS, becomes incorporated and cannot be cleaved to continue the exchange cycle (Harper (1998) Current Protocols in Pharmacology 2.6.1-10, John Wiley & Sons, Inc.). […] Here we describe the use of the [^35S]GTPγS binding assay using membranes from cells transfected with the human mGluR2 receptor and adapted from Sehaffhauser et al ((2003) Molecular Pharmacology 4:798-810) for the detection of the positive allosteric modulation (PAM) properties of the compounds of this invention.
CHO-cells were cultured to pre-confluence and stimulated with 5 mM butyrate for 24 hours, prior to washing in PBS, and then collection by scraping in homogenisation buffer (50 mM Tris-HCl buffer, pH 7.4, 4° C.). Cell lysates were homogenized briefly (15 s) using an ultra-turrax homogenizer. The homogenate was centrifuged at 23 500×g for 10 minutes and the supernatant discarded. The pellet was resuspended in 5 mM Tris-HCl, pH 7.4 and centrifuged again (30 000×g, 20 min, 4° C.). The final pellet was resuspended in 50 mM HEPES, pH 7.4 and stored at −80° C. in appropriate aliquots before use. Protein concentration was determined by the Bradford method (Bio-Rad, USA) with bovine serum albumin as standard.
Measurement of mGluR2 positive allosteric modulatory activity of test compounds in membranes containing human mGluR2 was performed using frozen membranes that were thawed and briefly homogenised prior to pre-incubation in 96-well microplates (15 μg/assay well, 30 minutes, 30° C.) in assay buffer (50 mM HEPES pH 7.4, 100 mM NaCl, 3 mM MgCl2, 50 μM GDP, 10 μg/ml saponin,) with increasing concentrations of positive allosteric modulator (from 0.3 nM to 50 μM) and either a minimal pre-determined concentration of glutamate (PAM assay), or no added glutamate. For the PAM assay, membranes were pre-incubated with glutamate at EC25 concentration, i.e. a concentration that gives 25% of the maximal response glutamate, and is in accordance to published data (Pin et al. (1999) Eur. J. Pharmacol. 375:277-294). After addition of [^35S]GTPγS (0.1 nM, f.c.) to achieve a total reaction volume of 200 μl, microplates were shaken briefly and further incubated to allow [^35S]GTPγS incorporation on activation (30 minutes, 30° C.). The reaction was stopped by rapid vacuum filtration over glass-fibre filter plates (Unifilter 96-well GF/B filter plates, Perkin-Elmer, Downers Grove, USA) microplate using a 96-well plate cell harvester (Filtermate, Perkin-Elmer, USA), and then by washing three times with 300 μl of ice-cold wash buffer (Na2PO4.2H20 10 mM, NaH2PO4.H20 10 mM, pH=7.4). […]

| EC50 (human mGluR2 receptor) | melting point | GTPgS - hR2 PAM pEC50 (human mGluR2 receptor) | Structure (SMILES) |
| --- | --- | --- | --- |
| 347 nM |  |  | CCCCn1ccc(-c2ccc(Oc3cc(C)nc(C)c3)c(F)c2)c(C#N)c1=O [Compound 7, 1-Butyl-4-[4-(2,6-dimethyl-pyridin-4-yloxy)-3-fluoro-phenyl]-2-oxo-1,2-dihydro-pyridine-3-carbonitrile] |
| 437 nM | 169.9 °C |  | CCCCn1ccc(-c2ccc(Oc3cc(C)nc(C)c3)cc2F)c(C#N)c1=O [Compound 6, 1-Butyl-4-[4-(2,6-dimethyl-pyridin-4-yloxy)-2-fluoro-phenyl]-2-oxo-1,2-dihydro-pyridine-3-carbonitrile] |
| 138 nM | 156.4 °C |  | CCCCn1ccc(-c2ccc(Oc3ccc(C)nc3C)c(F)c2)c(C#N)c1=O [Compound 2, 1-Butyl-4-[4-(2,6-dimethyl-pyridin-3-yloxy)-3-fluoro-phenyl]-2-oxo-1,2-dihydro-pyridine-3-carbonitrile] |
| 537 nM | 104.8 °C |  | CCCCn1ccc(-c2ccc(Oc3cccnc3C)c(F)c2)c(C#N)c1=O [Compound 12] |
| 437 nM | 125.2 °C and 125.4 °C |  | CCCCn1ccc(-c2ccc(Oc3ccnc(C)c3)c(F)c2)c(C#N)c1=O [Compound 5, 1-Butyl-4-[3-fluoro-4-(2-methyl-pyridin-4-yloxy)-phenyl]-2-oxo-1,2-dihydro-pyridine-3-carbonitrile] |
| 457 nM | 152.7 °C |  | Cc1ccc(Oc2ccc(-c3ccn(CC4CC4)c(=O)c3C#N)cc2F)c(C)n1 [Compound 3, 1-Cyclopropylmethyl-4-[4-(2,6-dimethyl-pyridin-3-yloxy)-3-fluoro-phenyl]-2-oxo-1,2-dihydro-pyridine-3-carbonitrile] |
|  | 127.1 °C | 6.41 | CCCCn1ccc(-c2ccc(Oc3ccnc(C)c3)cc2F)c(C#N)c1=O [Compound 4, 1-Butyl-4-[2-fluoro-4-(2-methyl-pyridin-4-yloxy)-phenyl]-2-oxo-1,2-dihydro-pyridine-3-carbonitrile] |
| 813 nM | 137 °C |  | Cc1cc(C)nc(Oc2ccc(-c3ccn(CC4CC4)c(=O)c3C#N)c(F)c2)c1 [Compound 1, 1-Cyclopropylmethyl-4-[4-(4,6-dimethyl-pyridin-2-yloxy)-2-fluoro-phenyl]-2-oxo-1,2-dihydro-pyridine-3-carbonitrile] |
|  | 121 °C |  | CCCCn1ccc(-c2ccc(Oc3ccnc(C)c3)cc2)c(C#N)c1=O [Compound 18, 3-cyano-1-butyl-4-[4-(2-methyl-pyridin-4-yloxy)-phenyl]-pyridine-2(1H)-one] |
| 631 nM |  |  | CCCCn1ccc(-c2ccc(Oc3ccncc3Cl)cc2)c(C#N)c1=O [Compound 20] |
| 708 nM | 201.2 °C |  | Cc1cc(Oc2ccc(-c3ccn(CC4CC4)c(=O)c3C#N)cc2F)cc(C)n1 [Compound 9, 1-Cyclopropylmethyl-4-[4-(2,6-dimethyl-pyridin-4-yloxy)-3-fluoro-phenyl]-2-oxo-1,2-dihydro-pyridine-3-carbonitrile] |
| 158 nM |  |  | N#Cc1c(-c2ccc(Oc3ccnc(Cl)c3)cc2)ccn(CC2CC2)c1=O [Compound 19] |
| 794 nM |  |  | Cc1cc(Oc2ccc(-c3ccn(CC4CC4)c(=O)c3C#N)c(F)c2)cc(C)n1 [Compound 8, 1-Cyclopropylmethyl-4-[4-(2,6-dimethyl-pyridin-4-yloxy)-2-fluoro-phenyl]-2-oxo-1,2-dihydro-pyridine-3-carbonitrile] |
| 676 nM |  |  | Cc1nccc(Oc2ccc(-c3ccn(CC4CC4)c(=O)c3C#N)cc2F)c1C [Compound 11, 1-Cyclopropylmethyl-4-[4-(2,3-dimethyl-pyridin-4-yloxy)-3-fluoro-phenyl]-2-oxo-1,2-dihydro-pyridine-3-carbonitrile] |
| 372 nM |  |  | Cc1nccc(Oc2ccc(-c3ccn(CC4CC4)c(=O)c3C#N)c(F)c2)c1C [Compound 10, 1-Cyclopropylmethyl-4-[4-(2,3-dimethyl-pyridin-4-yloxy)-2-fluoro-phenyl]-2-oxo-1,2-dihydro-pyridine-3-carbonitrile] |
| 437 nM | 136.7 °C |  | CCCCn1ccc(-c2ccc(Oc3cccnc3C)cc2)c(C#N)c1=O [Compound 16] |
| 708 nM | 172.2 °C |  | CCCCn1ccc(-c2cc(F)c(Oc3ccnc(C)c3)c(F)c2)c(C#N)c1=O [Compound 15] |
| 1000 nM |  |  | CCCCn1ccc(-c2ccc(Oc3cc(C)ccn3)cc2)c(C#N)c1=O [Compound 17] |
| 380 nM | 145.8 °C |  | Cc1ncccc1Oc1ccc(-c2ccn(CCC3CC3)c(=O)c2C#N)cc1F [Compound 14] |
| 417 nM | 110.7 °C |  | Cc1cc(Oc2ccc(-c3ccn(CCC4CC4)c(=O)c3C#N)c(F)c2)ccn1 [Compound 13] |

Reference: patent US9067891B2, “1,4-disubstituted 3-cyano-pyridone derivatives and their use as positive allosteric modulators of mGluR2-receptors” (JANSSEN PHARMACEUTICALS, INC., priority 2007, dated 2015)
